Series [1] relates to stearoyl-CoA-desaturase (SCD-1). Particulars: role: inhibitor; cited from earlier work.
Series [2] concerns non-cancerous healthy cells. As to conditions: in vitro; cited from earlier work.
For series [3] the following is noted: at a range of molar ratios; cited from earlier work.
For series [4], the system named is tumor growth of predominant cancer types. Particulars: preclinically in vivo; cited from earlier work.
Series [5] concerns tumor. The series can be described thus: Anti-tumor effect in mice after oral liposomal betulinic acid. As to conditions: extrapolated from 150 mg/kg weekly oral dose in mice. The series is classed as in vivo.
For series [6], the system named is tumor. As to conditions: oral, liposomal betulinic acid; cited from earlier work.
The next series deals with cancer cell lines. Particulars: cited from earlier work.
For series [7] the following is noted: at concentrations effectively limiting cancer growth, up to 500 mg per kg bodyweight; cited from earlier work.

In the case of `C=C(C)[C@@H]1CC[C@]2(C(=O)O)CC[C@]3(C)[C@H](CC[C@@H]4[C@@]5(C)CC[C@H](O)C(C)(C)[C@@H]5CC[C@]43C)[C@@H]12` [betulinic acid, (3β)-3-Hydroxylup-20 (29)-en-28-oic acid], the “Effect on SCD-1 activity” value in series [1] is recorded as “inhibit the activity of stearoyl-CoA-desaturase (SCD-1)”. Moreover, the “Cytotoxicity for non-cancerous healthy cells” value in series [2] is “absent”. In addition, in series [3], the “Miscibility with outer leaflet membrane phospholipids” value is “miscible”. The Tumor growth inhibition result in series [4] was “inhibits tumor growth of predominant cancer types”. Also, in the series on tumor [5], the “Weekly dose extrapolated to an individual of 80 kg” value is reported as 12 gr. Also, the “Weekly orally administered dose required for the observed anti-tumor effects in mice” value in the series on tumor [6] is given as 150 mg/kg bodyweight. Moreover, the “Activity against cancer types in vitro” value in the series with cancer cell lines is “broad activity against all prevalent cancer types in vitro”. The “Signs of toxicity in animal experiments” value in series [7] was “no signs of toxicity were observed”.
For `C=C(C)[C@@H]1CC[C@]2(C)CC[C@]3(C)[C@H](CC[C@@H]4[C@@]5(C)CC[C@H](O)C(C)(C)[C@@H]5CC[C@]43C)[C@@H]12` [lupeol, (3β)-Lup-20 (29)-en-3-ol], in series [3], the “Miscibility with outer leaflet membrane phospholipids” value is listed as “miscible”.

The values are drawn from US20260364013A1, “COMPOSITION AND METHOD OF PREPARATION OF BLOACTIVE TRITERPENOID MILK FAT GLOBULE FORMULATIONS” (EFNATICS B.V., priority 2023, published 2026).
